Patent US9902728B2, “Pyrrolo and pyrazolopyrimidines as ubiquitin-specific protease 7 inhibitors” (Forma Therapeutics, Inc., priority 2014, dated 2018)

The compounds below were run against T1, USP7 (Homo sapiens, UniProt Q93009) (assay: USP7 Assay A (Ubitquin-Rhodamine 110 Assay)). Settings: USP7 activity in USP7 assay A and B (table does not say which assay per compound); read-out: USP7_IC50.
T1 construct: USP7, construct USP7 (208-1102) 6*His, Viva Biotech; 6xHis (C); purchased Viva Biotech
Assay type: biochemical
Method in brief: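 Enzyme and compound sat together for 30 min before Ub-Rh110 was added, in buffer of 20 mM Tris-HCl (pH 8.0), 1 mM GSH, 0.03% BGG and 0.01% Triton X-100.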

T1 sequence (Q93009 208-1102): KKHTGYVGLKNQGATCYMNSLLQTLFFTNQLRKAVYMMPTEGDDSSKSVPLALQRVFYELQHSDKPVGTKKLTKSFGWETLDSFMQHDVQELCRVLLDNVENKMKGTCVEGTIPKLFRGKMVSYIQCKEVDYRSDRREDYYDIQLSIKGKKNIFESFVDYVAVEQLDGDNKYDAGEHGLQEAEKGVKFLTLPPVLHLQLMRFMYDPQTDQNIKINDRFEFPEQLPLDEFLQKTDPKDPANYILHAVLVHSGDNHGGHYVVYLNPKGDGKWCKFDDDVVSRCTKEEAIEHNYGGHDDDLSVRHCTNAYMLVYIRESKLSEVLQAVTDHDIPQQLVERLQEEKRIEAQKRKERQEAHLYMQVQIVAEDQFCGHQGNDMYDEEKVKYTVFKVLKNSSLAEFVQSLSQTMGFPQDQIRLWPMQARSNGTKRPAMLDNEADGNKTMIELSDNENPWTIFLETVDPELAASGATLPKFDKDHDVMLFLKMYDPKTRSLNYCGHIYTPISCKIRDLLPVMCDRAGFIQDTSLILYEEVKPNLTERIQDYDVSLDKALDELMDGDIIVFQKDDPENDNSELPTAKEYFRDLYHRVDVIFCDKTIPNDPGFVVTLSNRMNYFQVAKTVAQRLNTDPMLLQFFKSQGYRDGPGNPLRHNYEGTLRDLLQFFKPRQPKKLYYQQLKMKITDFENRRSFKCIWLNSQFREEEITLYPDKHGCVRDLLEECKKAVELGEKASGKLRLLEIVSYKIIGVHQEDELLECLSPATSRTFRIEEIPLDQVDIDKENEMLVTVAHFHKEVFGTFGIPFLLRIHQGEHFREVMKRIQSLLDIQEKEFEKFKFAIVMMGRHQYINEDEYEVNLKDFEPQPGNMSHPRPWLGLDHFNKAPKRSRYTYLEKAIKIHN

Structure (SMILES) | IC50 [nM]
O=C(C[C@H](C(F)F)n1cccn1)N1CCC(O)(Cn2cnc3c(cnn3-c3ccc(CN4CCC4)cc3)c2=O)CC1 [Compound I-855] | < 200
O=C(C[C@H](n1cccn1)C(F)(F)F)N1CCC(O)(Cn2cnc3c(cnn3-c3ccc(F)cc3)c2=O)CC1 [Compound I-912] | 1000 to 10000
O=C(C[C@@H](n1cccn1)C(F)(F)F)N1CCC(O)(Cn2cnc3c(cnn3-c3ccc(F)cc3)c2=O)CC1 [Compound I-913] | 1000 to 10000
O=C(c1cnc(N2CCC(O)CC2)o1)N1CCC(O)(Cn2cnc3c(cnn3-c3ccc(F)cc3)c2=O)CC1 [Compound I-915] | 1000 to 10000
Cc1ccc(-n2ncc3c(=O)n(CC4(O)CCN(C(=O)C5CC(Oc6ccccn6)C5)CC4)cnc32)cc1 (stereo not drawn) [Compound I-917] | 1000 to 10000
O=C(C[C@@H](C(F)F)n1cc(F)cn1)N1CCC(O)(Cn2cnc3c(cnn3-c3ccc(F)cc3)c2=O)CC1 [Compound I-918] | > 10000
O=C(c1ccc(-n2cnnc2)cc1)N1CCC(O)(Cn2cnc3c(cnn3-c3ccc(Cl)cc3)c2=O)CC1 [Compound I-919] | 1000 to 10000
CN1CCC(Oc2ccc(C(=O)N3CCC(O)(Cn4cnc5c(cnn5-c5ccc(Cl)cc5)c4=O)CC3)cn2)C1 (stereo not drawn) [Compound I-920] | 1000 to 10000
Cn1cc(C(=O)N2CCC(O)(Cn3cnc4c(cnn4-c4ccc(F)cc4)c3=O)CC2)c(Cn2cccn2)n1 [Compound I-921] | 1000 to 10000
Cc1cc(OC2CCN(C(=O)N3CCC(O)(Cn4cnc5c(cnn5-c5ccc(F)cc5)c4=O)CC3)CC2)no1 [Compound I-922] | 1000 to 10000
Cn1cc(OC2CCN(C(=O)N3CCC(O)(Cn4cnc5c(cnn5-c5ccc(F)cc5)c4=O)CC3)CC2)cn1 [Compound I-923] | 1000 to 10000
CC(=O)NC1CCC(C(=O)N2CCC(O)(Cn3cnc4c(cnn4-c4ccc(F)cc4)c3=O)CC2)CC1 (stereo not drawn) [Compound I-924] | 1000 to 10000
O=C(C1CCC(OC2CCOCC2)CC1)N1CCC(O)(Cn2cnc3c(cnn3-c3ccc(F)cc3)c2=O)CC1 (stereo not drawn) [Compound I-925] | 1000 to 10000
O=C(C1CCC(OC2CCOCC2)CC1)N1CCC(O)(Cn2cnc3c(cnn3-c3ccc(F)cc3)c2=O)CC1 (stereo not drawn) [Compound I-926] | 200 to 1000
CN1CCN(c2cnn(-c3ccc(-n4ncc5c(=O)n(CC6(O)CCN(C(=O)C7CC7)CC6)cnc54)cc3)c2)CC1 [Compound I-975, 5-[(1-cyclopropanecarbonyl-4-hydroxypiperidin-4-yl)methyl]-1-{4-[4-(4-methylpiperazin-1-yl)-1H-pyrazol-1-yl]phenyl}-1H,4H,5H-pyrazolo[3,4-d]pyrimidin-4-one] | 200 to 1000
O=C(c1ccc(F)cc1)N1CCC(O)(Cn2cnc3c(cnn3-c3ccc(-n4cc5c(n4)CCOC5)cc3)c2=O)CC1 [Compound I-976] | 1000 to 10000
O=C(C1CC1)N1CCC(O)(Cn2cnc3c(cnn3-c3ccc(-n4cc(OCCO)cn4)cc3)c2=O)CC1 [Compound I-977] | 1000 to 10000
O=C(c1cnc(C2CC2)o1)N1CCC(O)(Cn2cnc3c(cnn3-c3ccc(OCC4(F)CCC4)cc3)c2=O)CC1 [Compound I-981] | < 200
Cc1nc(-c2ccc(-n3ncc4c(=O)n(CC5(O)CCN(C(=O)c6ccc(F)cc6)CC5)cnc43)cc2)c[nH]1 [Compound I-983] | 1000 to 10000
Cc1cnc(-c2ccc(-n3ncc4c(=O)n(CC5(O)CCN(C(=O)c6ccc(F)cc6)CC5)cnc43)cc2)n1C [Compound I-984] | 1000 to 10000
O=C(c1cnc(C2CC2)o1)N1CCC(O)(Cn2cnc3c(cnn3-c3ccc(-c4cccnc4)cc3)c2=O)CC1 [Compound I-985] | 200 to 1000
Cc1cn(-c2ccc(-n3ncc4c(=O)n(CC5(O)CCN(C(=O)c6ccc(F)cc6)CC5)cnc43)cc2)cn1 [Compound I-987] | 1000 to 10000
Cc1nccn1-c1ccc(-n2ncc3c(=O)n(CC4(O)CCN(C(=O)c5ccc(F)cc5)CC4)cnc32)cc1 [Compound I-988] | 1000 to 10000

Structure (SMILES) | IC50 [nM]
CN1Cc2cnn(-c3ccc(C(=O)N4CCC(O)(Cn5cnc6c(cnn6-c6ccc(F)cc6)c5=O)CC4)cc3)c2C1 [Compound I-1000] | 1000 to 10000
CN1Cc2cn(-c3ccc(C(=O)N4CCC(O)(Cn5cnc6c(cnn6-c6ccc(F)cc6)c5=O)CC4)cc3)nc2C1 [Compound I-1001] | 1000 to 10000
NC(=O)Cn1cc(-c2ccc(C(=O)N3CCC(O)(Cn4cnc5c(cnn5-c5ccc(F)cc5)c4=O)CC3)cc2)cn1 [Compound I-1002, 2-(4-(4-(4-((1-(4-fluorophenyl)-4-oxo-1H-pyrazolo[3,4-d]pyrimidin-5(4H)-yl)methyl)-4-hydroxypiperidine-1-carbonyl)phenyl)-1H-pyrazol-1-yl)acetamide] | 1000 to 10000
C=CC(=O)N1[C@@H](C(=O)N2CCC(O)(Cn3cnc4c(cnn4-c4ccc(F)cc4)c3=O)CC2)C[C@@H]1C [Compound I-1003] | 1000 to 10000
O=C(c1ccc(N2CC3CC2CN3)cc1)N1CCC(O)(Cn2cnc3c(cnn3-c3ccc(F)cc3)c2=O)CC1 (stereo not drawn) [Compound I-1005] | 1000 to 10000
O=C(c1ccc(-c2cnn(CCO)c2)cc1)N1CCC(O)(Cn2cnc3c(cnn3-c3ccc(F)cc3)c2=O)CC1 [Compound I-1006] | 1000 to 10000
O=C(C1CC1)N1CCC(O)(Cn2cnc3c(ccn3-c3cccc(CN4CCCCC4)c3)c2=O)CC1 [Compound I-1009] | 1000 to 10000
O=C(C1CC1)N1CCC(O)(Cn2cnc3c(ccn3-c3ccc(F)c(CN4CCCCC4)c3)c2=O)CC1 [Compound I-1010] | 1000 to 10000
N#Cc1ccc(OC2CCC(C(=O)N3CCC(O)(Cn4cnc5c(cnn5-c5ccc(F)cc5)c4=O)CC3)CC2)nc1 (stereo not drawn) [Compound I-1014] | 200 to 1000
Cc1cncc(OC2CCC(C(=O)N3CCC(O)(Cn4cnc5c(cnn5-c5ccc(F)cc5)c4=O)CC3)CC2)n1 (stereo not drawn) [Compound I-1015] | 200 to 1000
Cc1nccc(OC2CCC(C(=O)N3CCC(O)(Cn4cnc5c(cnn5-c5ccc(F)cc5)c4=O)CC3)CC2)n1 (stereo not drawn) [Compound I-1016] | 200 to 1000
O=C(C1CCC(Oc2cccnc2F)CC1)N1CCC(O)(Cn2cnc3c(cnn3-c3ccccc3)c2=O)CC1 (stereo not drawn) [Compound I-1017] | 200 to 1000
O=C(C1CCC(Oc2cccc(N3CCC3)n2)CC1)N1CCC(O)(Cn2cnc3c(cnn3-c3ccc(F)cc3)c2=O)CC1 (stereo not drawn) [Compound I-1018] | < 200
COc1ccc(OC2CCC(C(=O)N3CCC(O)(Cn4cnc5c(cnn5-c5ccc(F)cc5)c4=O)CC3)CC2)nc1 (stereo not drawn) [Compound I-1019] | 200 to 1000
COc1ccc(OC2CCC(C(=O)N3CCC(O)(Cn4cnc5c(cnn5-c5ccccc5)c4=O)CC3)CC2)nc1 (stereo not drawn) [Compound I-1020] | 200 to 1000
O=C(C1CCC(Oc2cnccn2)CC1)N1CCC(O)(Cn2cnc3c(cnn3-c3ccc(F)cc3)c2=O)CC1 (stereo not drawn) [Compound I-1021] | 200 to 1000
Cc1ncc(OC2CCC(C(=O)N3CCC(O)(Cn4cnc5c(cnn5-c5ccc(F)cc5)c4=O)CC3)CC2)cn1 (stereo not drawn) [Compound I-1022] | 200 to 1000
O=C(C1CCC(Nc2cccc(F)n2)CC1)N1CCC(O)(Cn2cnc3c(cnn3-c3ccc(F)cc3)c2=O)CC1 (stereo not drawn) [Compound I-1023] | < 200
O=C(C1CCC(Nc2cccc(F)n2)CC1)N1CCC(O)(Cn2cnc3c(cnn3-c3ccc(F)cc3)c2=O)CC1 (stereo not drawn) [Compound I-1024] | < 200
CC(c1ccccc1)c1nn(C)cc1C(=O)N1CCC(O)(Cn2cnc3c(cnn3-c3ccc(F)cc3)c2=O)CC1 (stereo not drawn) [Compound I-1025] | 200 to 1000
C[C@H](CC(=O)N1CCC(O)(Cn2cnc3c(cnn3-c3ccc(F)cc3)c2=O)CC1)n1ccc(F)n1 [Compound I-1028] | < 200
C[C@@H](CC(=O)N1CCC(O)(Cn2cnc3c(cnn3-c3ccc(F)cc3)c2=O)CC1)n1ccc(F)n1 [Compound I-1029] | 1000 to 10000

Same assay, conditions: USP7 assay A and B (table does not say which assay per compound); read-out: USP7_IC50

Structure (SMILES) | IC50 [nM]
CN(C)CCOc1cc(-n2ncc3c(=O)n(CC4(O)CCN(C(=O)C5CC5)CC4)cnc32)ccc1-c1ccccc1 [Compound I-856] | 200 to 1000
Cn1ncc2c(=O)n(CC3(O)CCN(C(=O)C[C@@H](c4ccccc4)C(F)(F)F)CC3)cnc21 [Compound I-861] | > 10000
Cc1nnc(-c2ccc(C(=O)N3CCC(O)(Cn4cnc5c(cnn5-c5ccc(F)cc5)c4=O)CC3)cc2)o1 [Compound I-911] | 1000 to 10000
C#CC(=O)NC1CC(C(=O)N2CCC(O)(Cn3cnc4c(cnn4-c4ccc(F)cc4)c3=O)CC2)C1 (stereo not drawn) [Compound I-950] | 1000 to 10000
C#CC(=O)N[C@@H]1CC[C@@H]1C(=O)N1CCC(O)(Cn2cnc3c(cnn3-c3ccc(F)cc3)c2=O)CC1 [Compound I-952] | 200 to 1000
Nc1cccc(-n2ncc3c(=O)n(CC4(O)CCN(C(=O)C5CC5)CC4)cnc32)c1 [Compound I-964] | 1000 to 10000
Nc1ccc(-n2ncc3c(=O)n(CC4(O)CCN(C(=O)C5CC5)CC4)cnc32)cc1 [Compound I-965] | 1000 to 10000
CN(C)C(=O)N1CCC(O)(Cn2cnc3c(cnn3-c3ccc(N4CCNCC4)cc3)c2=O)CC1 [Compound I-967] | 1000 to 10000
CN1CCN(c2ccc(-n3ncc4c(=O)n(CC5(O)CCN(C(=O)c6ccccc6)CC5)cnc43)cc2F)CC1 [Compound I-970] | 1000 to 10000
CO[C@]1(C)CCN(c2cc(-n3ncc4c(=O)n(CC5(O)CCN(C(=O)C6CC6)CC5)cnc43)ccc2F)C1 [Compound I-972] | 1000 to 10000
CN(C)C(=O)N1CCC(O)(Cn2cnc3c(cnn3-c3cccc(N4C[C@@H](O)[C@H](F)C4)c3)c2=O)CC1 [Compound I-974] | 1000 to 10000
O=C(c1ccc(OC(F)F)cc1)N1CCC(O)(Cn2cnc3c(cnn3-c3cccc(CO)c3)c2=O)CC1 [Compound I-989] | 1000 to 10000
CC(C)N1CCC(c2ccc(-n3ncc4c(=O)n(CC5(O)CCN(C(=O)N(C)C)CC5)cnc43)cc2)CC1 [Compound I-992] | 1000 to 10000
O=C(c1ccc(F)cc1)N1CCC(O)(Cn2cnc3c(cnn3-c3cccc(C4CCNCC4)c3)c2=O)CC1 [Compound I-993] | 1000 to 10000
CN1CCCCC1CCc1ccc(-n2ncc3c(=O)n(CC4(O)CCN(C(=O)c5ccc(F)cc5)CC4)cnc32)cc1 (stereo not drawn) [Compound I-1007, 5-((1-(4-fluorobenzoyl)-4-hydroxypiperidin-4-yl)methyl)-1-(4-(2-(1-methylpiperidin-2-yl)ethyl)phenyl)-1H-pyrazolo[3,4-d]pyrimidin-4(5H)-one] | 1000 to 10000
